Data: US20240252508A1, “Novel glucose uptake inhibitors for use in the treatment of cancer” (NOVELYEAST BV, priority 2021, published 2024)

What was measured:
tps1Δ cells = test: Growth rescue of tps1Δ strain on glucose (growth curves, 2% galactose medium); format: cell-based, S. cerevisiae; settings: 100 μM compound, 2.5 mM glucose
Protocol: Growth curves were made by measuring OD595 in a 96-well plate using the Multiskan™ FC Microplate Photometer (Thermo Fisher Scientific). Typically, for tps1Δ rescue experiments (FIG. 2b-e; FIG. 4a), cells were (pre)grown in Complete Synthetic medium containing 2% galactose.
Compounds were always added 10 min prior to glucose addition to ensure maximal interaction between the cells and compounds. Cells originating from the preculture were harvested, washed in medium without sugar, after which they were resuspended to an OD of 0.1 in 200 μL of the appropriate medium. At least three technical replicates were included per condition. OD595 was measured at 30° C. every 30 min with a 10-min shaking interval.

[1] = test system: A549 lung adenocarcinoma cells; test: A549 cell proliferation / growth inhibition; format: cell-based, human; settings: for Selected from primary screen for growth inhibition of A549 cells at 50 μM: 50 μM compound, 1 mM glucose; for Selected for having an IC50 ratio (10 mM glucose: 1 mM glucose) of A549 growth higher than WBC-A: IC50 on 10 mM vs 1 mM glucose, compared with WBC-A
Protocol: The analog library (n=203) was screened for inhibition of growth of A549 cells on RPMI medium supplemented with 1 mM glucose. DMSO (green bar) and WBC-A (orange bar) served as negative and positive control, respectively. In addition, the reference glucose transport inhibitors STF-31, Fasentin, BAY-876, WZB-117 and Cytochalasin B were included and indicated in red. Compounds were added at 50 μM concentration. Number of cells was determined by counting nuclei stained by Hoechst after three days of growth.
For both adherent A549 and MCF10Δ H-RAS^V12 cell lines, growth curves were established using the IncuCyte® ZOOM technology. By collecting phase contrast images, the IncuCyte® software provides a calculated confluency percentage from which growth curves can be deducted.
Cells were seeded at a density of 1000-1500 cells/well in a Nunc-Edge™ 96-well plate (Thermo Fisher Scientific) and growth was typically measured over 3 to 5 days. For the measurement of apoptosis induction using the MCF10Δ H-RAS^V12 cell line, the IncuCyte® Caspase-3/7 green dye was added to the medium in the recommended concentration at the beginning of the growth curve experiment. Apoptosis was detected by taking fluorescent images by excitation at 488 nm followed by IncuCyte® software analysis. Cell growth of the KMS-12-PE multiple myeloma cell line, which grows in suspension, was measured by manual cell counting. Cells were initially seeded at a density of 10^4 cells/well and incubated for 4 days after which the cell number was counted. For all cell lines, the same medium used for pregrowth was also used for the growth curve experiment, albeit with different glucose concentrations depending on the experimental design. With compound administration, the final concentration of DMSO never exceeded 0.1%. Typically, at least four technical repeats were included per condition.

| Compound | Rescue of the tps1Δ strain on 2.5 mM glucose at 100 μM (tps1Δ cells) | Selected from primary screen for growth inhibition of A549 cells at 50 μM [1] | Selected for having an IC50 ratio (10 mM glucose: 1 mM glucose) of A549 growth higher than WBC-A [1] |
| --- | --- | --- | --- |
| Cc1nc(SCC(=O)NC(=O)NCc2ccco2)c2c(-c3cccs3)csc2n1 [28B] | No | No | – |
| CNc1nnc(Sc2nc(C)nc3scc(-c4cccs4)c23)s1 [32A] | No | No | – |
| Cc1nc(SCC(=O)NCC(F)(F)F)c2c(-c3cccs3)csc2n1 [31B] | No | No | – |
| Cn1nnnc1Sc1ncnc2scc(-c3ccc(Cl)cc3)c12 [48A] | No | Yes | Lower IC50 ratio |
| Cc1nc(Sc2nnc(-c3cccnc3)n2C2CC2)c2c(-c3cccs3)csc2n1 [24A] | No | Yes | Lower IC50 ratio |
| COc1ccc(-c2csc3nc(C)nc(Sc4nnc(C)n4C)c23)cc1OC [5A] | No | No | – |
| Cc1nc(SCCC#N)c2c(-c3cccs3)csc2n1 [15A] | No | No | – |
| COCCNC(=O)CN(C)c1nc(C)nc2scc(-c3cccs3)c12 [23B] | No | Yes | Lower IC50 ratio |
| c1ccc(Cn2c(CN3CCCC3)nnc2Sc2ncnc3scc(-c4ccccc4)c23)cc1 [27A] | No | Yes | Lower IC50 ratio |
| COc1ccc(-c2csc3nc(C)nc(Sc4nnc(-c5ccoc5C)n4C)c23)cc1OC [20A] | No | Yes | Lower IC50 ratio |
| Cc1nc(SCC(=O)Nc2ccccc2-c2ccccc2)c2c(-c3cccs3)csc2n1 [13B] | No | Yes | Higher IC50 ratio, but false-positive |
| CCCN(CC1CC1)C(=O)CSc1nc(C)nc2scc(-c3cccs3)c12 [9B] | No | No | – |
| COc1ccc(-c2csc3nc(C)nc(SCCO)c23)cc1OC [18C] | No | No | – |
| Cc1sc2[nH]c(CSc3nnc(-c4cccs4)n3Cc3ccccc3)nc(=N)c2c1C [11A] | No | No | – |
| Cc1nc(SCC(=O)c2ccc3c(c2)NC(=O)CO3)c2c(-c3cccs3)csc2n1 [11C] | Yes | Yes | Higher IC50 ratio and confirmed |
| COC(=O)C(C)Sc1nc(C)nc2scc(-c3cccs3)c12 (centres unmarked) [36B] | No | No | – |
| Cc1ccc(-c2csc3nc(CSc4nnc5n4CCCCC5)[nH]c(=O)c23)s1 [4A] | No | No | – |
| Cc1nc(SCC(=O)N2CCOCC2)c2cc(-c3ccccc3)sc2n1 [28C] | No | No | – |
| Cc1sc2nc(CSc3ccccc3)nc(NCc3nnc4n3CCCCC4)c2c1C [9A] | No | No | – |

| Compound | Rescue of the tps1Δ strain on 2.5 mM glucose at 100 μM (tps1Δ cells) | Selected from primary screen for growth inhibition of A549 cells at 50 μM [1] | Selected for having an IC50 ratio (10 mM glucose: 1 mM glucose) of A549 growth higher than WBC-A [1] |
| --- | --- | --- | --- |
| Cc1nc(Sc2nnc(C)[nH]2)c2c(-c3ccccc3)csc2n1 [13A] | No | No | – |
| CCOC(=O)c1sc2nc(C)nc(SCC(N)=O)c2c1C [59C] | No | No | – |
| CCn1c(Sc2nc(C)nc3scc(-c4cccs4)c23)nnc1-c1ccco1 [38C] | No | No | – |
| c1cnc(Sc2nc(CN3CCOCC3)nc3scc(-c4cccs4)c23)nc1 [1C] | No | Yes | Lower IC50 ratio |
| O=C(CSc1ncnc2scc(-c3ccccc3)c12)N1CCOCC1 [60C] | No | No | – |
| OCCCSc1ncnc2scc(-c3ccc(F)cc3)c12 [53C] | No | No | – |
| Cc1ccc(-c2csc3ncnc(SCC(=O)NCc4ccco4)c23)cc1 [8B] | No | Yes | Lower IC50 ratio |
| Cc1nc(NC2CCC(O)CC2)c2c(-c3cccs3)csc2n1 (centres unmarked) [42B] | No | No | – |
| OCCSc1ncnc2scc(-c3ccc(F)cc3)c12 [56C] | No | No | – |
| c1ccn2c(Sc3ncnc4sc5c(c34)CCC5)nnc2c1 [60A] | No | No | – |
| Cc1nc(SC(C)C(=O)Nc2ccc(S(N)(=O)=O)cc2)c2c(-c3cccs3)csc2n1 (centres unmarked) [14B] | No | Yes | Lower IC50 ratio |
| COc1ccccc1-n1ncc2c(C)nnc(SCC(N)=O)c21 [68C] | No | No | – |
| OCCSc1ncnc2sc(-c3ccccc3)cc12 [30C] | No | No | – |
| Cc1nc(NCC(=O)Nc2c(C)cccc2C)c2c(-c3cccs3)csc2n1 [29C] | No | No | – |
| Cc1nc(Sc2nnc3n2CCCCC3)c2c3c(sc2n1)CCC3 [63A] | No | No | – |
| Cc1nc(SCC(=O)N(Cc2ccccc2)Cc2ccccc2)c2c(-c3cccs3)csc2n1 [22B] | No | No | – |
| COC(=O)CSc1nc(C)nc2sc3c(c12)CCC3 [14C] | No | No | – |
| Cc1nc(NCCCN2CCC(O)CC2)c2c(-c3cccs3)csc2n1 [16B] | No | No | – |
| COc1ccccc1NC(=O)CSc1ncnc2scc(-c3ccccc3)c12 [11B] | No | No | – |
